Data taken from US7964595B2, “Thiophenyl prostaglandin derivatives for treating glaucoma and ocular hypertension” (Allergan, Inc., priority 2008, dated 2011).

Tested on: lashes and adjacent hairs of patients
Assay: Clinical observation of eyelash/hair growth in glaucoma patients treated in one eye
Assay type: in vivo
Details: glaucoma patients treated in one eye only
Text: In the course of treating patients having glaucoma, treatment may only be appropriate in one eye. […] The lash appearance on the lids of the treated eyes would have appeared quite attractive if it represented a bilateral phenomenon. As a result of its asymmetric nature, the long lashes on one side could be construed as disturbing from a cosmetic standpoint. A systemic examination was preformed as a result of the asymmetric phenomenon. It soon became apparent that this altered appearance was not an isolated finding. […] Definite differences could be identified to varying degrees in the lashes and adjacent hairs of all patients who were taking the drug on a unilateral basis for longer than 6 months.
The changes in the lashes were apparent on gross inspection in several patients once attention was focused on the issue. In those with light colored hair and lashes, the differences were only seen easily with the aid of the high magnification and lighting capabilities of the slit lamp biomicroscope. In the course of glaucoma follow-up examination, attention is generally immediately focused on the eye itself. As a result of the high power magnification needed only one eye is seen at a time and the eye is seen at a high enough power that the lashes are not in focus. […]

For `CCNC(=O)CCC/C=C\C[C@@H]1[C@@H](/C=C/[C@@H](O)CCc2ccccc2)[C@H](O)C[C@@H]1O` [bimatoprost], the “lash appearance in treated eye versus non-treated eye” value was “longer, thicker, and fuller”.
